Reference: patent US20130072430A1, “METHODS FOR TREATMENT OR PROPHYLAXIS OF KIDNEY OR LIVER DYSFUNCTION” (NPS PHARMACEUTICALS, INC., priority 2010, published 2013)

System: Human patients with short bowel syndrome
Experiment: Example 2: liver biomarkers (albumin, gamma glutamyl transferase, total bilirubin, ALT, AST, ALP) in short bowel syndrome patients, every four weeks for 24 weeks
Type: in vivo
Procedure: To further confirm the results of Example 1, a further study was conducted involving more individuals and additional diagnostic biomarkers. Human patients with short bowel syndrome were divided into two groups: a control group (43 total individuals) to receive placebo, and an experimental group (42 total individuals) to receive teduglutide at 0.05 mg/kg/day throughout the study. Patients were treated by subcutaneous injection of placebo or the appropriate dose of teduglutide. Known biomarkers of liver function were monitored every four weeks, for 24 weeks. The liver biomarkers tested included albumin, gamma glutamyl transferase, total bilirubin, ALT and AST and ALP. Before administration of placebo or teduglutide, diagnostic biomarker levels were tested to establish a baseline for each individual.
To determine the effect of GLP-2 on the levels of the diagnostic biomarkers, the average level of each biomarker was measured for the placebo and teduglutide treated groups for each visit. Furthermore, the average change from baseline was calculated using the established baseline values. For FIGS. 17-28, p-values were calculated using the t-test.
P values are provided, which were calculated for each distribution of biomarker changes for each week using the chi-squared test.

[1] = Endpoint (last assessment after start of treatment), 0.05 mg/kg/d, n=42
[2] = Endpoint (last assessment), 0.05 mg/kg/d, m=42

CC[C@H](C)[C@H](NC(=O)[C@H](Cc1ccccc1)NC(=O)[C@H](CC(=O)O)NC(=O)[C@H](CCCNC(=N)N)NC(=O)[C@H](C)NC(=O)[C@H](C)NC(=O)[C@H](CC(C)C)NC(=O)[C@H](CC(N)=O)NC(=O)[C@H](CC(=O)O)NC(=O)[C@H](CC(C)C)NC(=O)[C@@H](NC(=O)[C@@H](NC(=O)[C@H](CC(N)=O)NC(=O)[C@H](CCSC)NC(=O)[C@H](CCC(=O)O)NC(=O)[C@H](CC(=O)O)NC(=O)[C@H](CO)NC(=O)[C@H](Cc1ccccc1)NC(=O)[C@H](CO)NC(=O)CNC(=O)[C@H](CC(=O)O)NC(=O)CNC(=O)[C@@H](N)Cc1c[nH]cn1)[C@@H](C)O)[C@@H](C)CC)C(=O)N[C@@H](CC(N)=O)C(=O)N[C@@H](Cc1c[nH]c2ccccc12)C(=O)N[C@@H](CC(C)C)C(=O)N[C@H](C(=O)N[C@@H](CCC(N)=O)C(=O)N[C@H](C(=O)N[C@@H](CCCCN)C(=O)N[C@H](C(=O)N[C@H](C(=O)N[C@@H](CC(=O)O)C(=O)O)[C@@H](C)O)[C@@H](C)CC)[C@@H](C)O)[C@@H](C)CC [teduglutide]
average level of diagnostic biomarkers elevated in liver dysfunction versus placebo cohort (0.05 mg/kg/day): lower level, on average
likelihood of a >10% decrease in liver biomarkers versus placebo (0.05 mg/kg/day): more likely
likelihood of a >10% increase in liver biomarkers versus placebo (0.05 mg/kg/day): less likely
measured level of albumin relative to placebo cohort (0.05 mg/kg/day, as treatment progressed): became elevated
ALKALINE PHOSPHATASE Change from Baseline, Median [1]: −22 U/L
ALT Change from Baseline, Mean [1]: −12.1 U/L
ALT Change from Baseline, Median [1]: −4 U/L
ALT Observed Value, Mean [1]: 31.0 U/L
ALT Observed Value, Median [1]: 23.5 U/L
AST Change from Baseline, Mean [1]: −5.4 U/L
AST Change from Baseline, Median [1]: −3 U/L
AST Observed Value, Mean [1]: 27.0 U/L
AST Observed Value, Median [1]: 24 U/L
Albumin Change from Baseline, Mean [1]: -0.5 g/L
Albumin Change from Baseline, Median [1]: 0 g/L
Albumin Observed Value, Mean [1]: 41.9 g/L
Albumin Observed Value, Median [1]: 42 g/L
Alkaline Phosphatase Change from Baseline, Mean [1]: −28.3 U/L
Alkaline Phosphatase Observed Value, Mean [1]: 106.4 U/L
Alkaline Phosphatase Observed Value, Median [1]: 90.5 U/L
Bilirubin Change from Baseline, Mean [1]: -3.33 µmol/L
Bilirubin Change from Baseline, Median [1]: -1.95 µmol/L
Bilirubin Observed Value, Mean [1]: 8.87 µmol/L
Bilirubin Observed Value, Median [1]: 6.95 µmol/L
Gamma Glutamyl Transferase Change from Baseline, Mean [1]: −12.8 U/L
Gamma Glutamyl Transferase Change from Baseline, Median [1]: −6 U/L
Gamma Glutamyl Transferase Observed Value, Mean [1]: 62.3 U/L
Gamma Glutamyl Transferase Observed Value, Median [1]: 42 U/L
ALT >10% decrease from Baseline, % of subjects [2]: (59.5%)
ALT >10% decrease from Baseline, n subjects [2]: 25
ALT >10% increase from Baseline, % of subjects [2]: (11.9%)
ALT >10% increase from Baseline, n subjects [2]: 5
ALT Within 10% of Baseline, % of subjects [2]: (28.6%)
ALT Within 10% of Baseline, n subjects [2]: 12
AST >10% decrease from Baseline, % of subjects [2]: (59.5%)
AST >10% decrease from Baseline, n subjects [2]: 25
AST >10% increase from Baseline, % of subjects [2]: (14.3%)
AST >10% increase from Baseline, n subjects [2]: 6
AST Within 10% of Baseline, % of subjects [2]: (26.2%)
AST Within 10% of Baseline, n subjects [2]: 11
Albumin >10% decrease from Baseline, % of subjects [2]: (4.8%)
Albumin >10% decrease from Baseline, n subjects [2]: 2
Albumin >10% increase from Baseline, n subjects [2]: 0
Albumin Within 10% of Baseline, % of subjects [2]: (95.2%)
Albumin Within 10% of Baseline, n subjects [2]: 40
Alkaline Phosphatase >10% decrease from Baseline, % of subjects [2]: (57.1%)
Alkaline Phosphatase >10% decrease from Baseline, n subjects [2]: 24
Alkaline Phosphatase >10% increase from Baseline, % of subjects [2]: (14.3%)
Alkaline Phosphatase >10% increase from Baseline, n subjects [2]: 6
Alkaline Phosphatase Within 10% of Baseline, % of subjects [2]: (28.6%)
Alkaline Phosphatase Within 10% of Baseline, n subjects [2]: 12
Bilirubin >10% decrease from Baseline, % of subjects [2]: (64.3%)
Bilirubin >10% decrease from Baseline, n subjects [2]: 27
Bilirubin >10% increase from Baseline, % of subjects [2]: (16.7%)
Bilirubin >10% increase from Baseline, n subjects [2]: 7
Bilirubin Within 10% of Baseline, % of subjects [2]: (19.0%)
Bilirubin Within 10% of Baseline, n subjects [2]: 8
ALT >10% decrease from Baseline, % of subjects (Week 2, 0.05 mg/kg/d, m=40): (57.5%)
ALT >10% decrease from Baseline, n subjects (Week 2, 0.05 mg/kg/d, m=40): 23
ALT >10% increase from Baseline, % of subjects (Week 2, 0.05 mg/kg/d, m=40): (17.5%)
ALT >10% increase from Baseline, n subjects (Week 2, 0.05 mg/kg/d, m=40): 7
ALT Within 10% of Baseline, % of subjects (Week 2, 0.05 mg/kg/d, m=40): (25.0%)
ALT Within 10% of Baseline, n subjects (Week 2, 0.05 mg/kg/d, m=40): 10
AST >10% decrease from Baseline, % of subjects (Week 2, 0.05 mg/kg/d, m=40): (50.0%)
AST >10% decrease from Baseline, n subjects (Week 2, 0.05 mg/kg/d, m=40): 20
AST >10% increase from Baseline, % of subjects (Week 2, 0.05 mg/kg/d, m=40): (12.5%)
AST >10% increase from Baseline, n subjects (Week 2, 0.05 mg/kg/d, m=40): 5
AST Within 10% of Baseline, % of subjects (Week 2, 0.05 mg/kg/d, m=40): (37.5%)
AST Within 10% of Baseline, n subjects (Week 2, 0.05 mg/kg/d, m=40): 15
Albumin >10% decrease from Baseline, % of subjects (Week 2, 0.05 mg/kg/d, m=40): (7.5%)
Albumin >10% decrease from Baseline, n subjects (Week 2, 0.05 mg/kg/d, m=40): 3
Albumin >10% increase from Baseline, n subjects (Week 2, 0.05 mg/kg/d, m=40): 0
Albumin Within 10% of Baseline, % of subjects (Week 2, 0.05 mg/kg/d, m=40): (92.5%)
Albumin Within 10% of Baseline, n subjects (Week 2, 0.05 mg/kg/d, m=40): 37
Alkaline Phosphatase >10% decrease from Baseline, % of subjects (Week 2, 0.05 mg/kg/d, m=40): (37.5%)
Alkaline Phosphatase >10% decrease from Baseline, n subjects (Week 2, 0.05 mg/kg/d, m=40): 15
Alkaline Phosphatase >10% increase from Baseline, % of subjects (Week 2, 0.05 mg/kg/d, m=40): (15.0%)
Alkaline Phosphatase >10% increase from Baseline, n subjects (Week 2, 0.05 mg/kg/d, m=40): 6
Alkaline Phosphatase Within 10% of Baseline, % of subjects (Week 2, 0.05 mg/kg/d, m=40): (47.5%)
Alkaline Phosphatase Within 10% of Baseline, n subjects (Week 2, 0.05 mg/kg/d, m=40): 19
Bilirubin >10% decrease from Baseline, % of subjects (Week 2, 0.05 mg/kg/d, m=40): (70.0%)
Bilirubin >10% decrease from Baseline, n subjects (Week 2, 0.05 mg/kg/d, m=40): 28
Bilirubin >10% increase from Baseline, % of subjects (Week 2, 0.05 mg/kg/d, m=40): (17.5%)
Bilirubin >10% increase from Baseline, n subjects (Week 2, 0.05 mg/kg/d, m=40): 7
Bilirubin Within 10% of Baseline, % of subjects (Week 2, 0.05 mg/kg/d, m=40): (12.5%)
Bilirubin Within 10% of Baseline, n subjects (Week 2, 0.05 mg/kg/d, m=40): 5
ALKALINE PHOSPHATASE Change from Baseline, Median (Week 2, 0.05 mg/kg/d, n=40): −8 U/L
ALT Change from Baseline, Mean (Week 2, 0.05 mg/kg/d, n=40): −8.9 U/L
ALT Change from Baseline, Median (Week 2, 0.05 mg/kg/d, n=40): −5.5 U/L
ALT Observed Value, Mean (Week 2, 0.05 mg/kg/d, n=40): 35.2 U/L
ALT Observed Value, Median (Week 2, 0.05 mg/kg/d, n=40): 27.5 U/L
AST Change from Baseline, Mean (Week 2, 0.05 mg/kg/d, n=40): −3.6, U/L
AST Change from Baseline, Median (Week 2, 0.05 mg/kg/d, n=40): −3 U/L
AST Observed Value, Mean (Week 2, 0.05 mg/kg/d, n=40): 29.0 U/L
AST Observed Value, Median (Week 2, 0.05 mg/kg/d, n=40): 24.5 U/L
Albumin Change from Baseline, Mean (Week 2, 0.05 mg/kg/d, n=40): -0.9 g/L
Albumin Change from Baseline, Median (Week 2, 0.05 mg/kg/d, n=40): -1 g/L
Albumin Observed Value, Mean (Week 2, 0.05 mg/kg/d, n=40): 41.5 g/L
Albumin Observed Value, Median (Week 2, 0.05 mg/kg/d, n=40): 42 g/L
Alkaline Phosphatase Change from Baseline, Mean (Week 2, 0.05 mg/kg/d, n=40): −12.5 U/L
Alkaline Phosphatase Observed Value, Mean (Week 2, 0.05 mg/kg/d, n=40): 123.7 U/L
Alkaline Phosphatase Observed Value, Median (Week 2, 0.05 mg/kg/d, n=40): 104 U/L
Bilirubin Change from Baseline, Mean (Week 2, 0.05 mg/kg/d, n=40): -2.12 µmol/L
Bilirubin Change from Baseline, Median (Week 2, 0.05 mg/kg/d, n=40): -1.85 µmol/L
Bilirubin Observed Value, Mean (Week 2, 0.05 mg/kg/d, n=40): 10.29 µmol/L
Bilirubin Observed Value, Median (Week 2, 0.05 mg/kg/d, n=40): 7.65 µmol/L
Gamma Glutamyl Transferase Change from Baseline, Mean (Week 2, 0.05 mg/kg/d, n=40): 7.4 U/L
